Laboratory results reported in article PMC7881642, “Inducing secondary metabolite production of Aspergillus sydowii through microbial co-culture with Bacillus subtilis” (Microbial Cell Factories, 2021).

How the values were obtained:
[1] = tested on: insulin-stimulated glucose consumption; parameters: method as in PMID 23647825; details: cited from earlier work
PTP1b = biological target: T1, PTP1b (Homo sapiens, UniProt P18031); assay: Protein tyrosine phosphatase 1b inhibitory assay (pNPP substrate); type: biochemical; details: 37 °C, pH 6.0
T1 sequence (P18031 1-435): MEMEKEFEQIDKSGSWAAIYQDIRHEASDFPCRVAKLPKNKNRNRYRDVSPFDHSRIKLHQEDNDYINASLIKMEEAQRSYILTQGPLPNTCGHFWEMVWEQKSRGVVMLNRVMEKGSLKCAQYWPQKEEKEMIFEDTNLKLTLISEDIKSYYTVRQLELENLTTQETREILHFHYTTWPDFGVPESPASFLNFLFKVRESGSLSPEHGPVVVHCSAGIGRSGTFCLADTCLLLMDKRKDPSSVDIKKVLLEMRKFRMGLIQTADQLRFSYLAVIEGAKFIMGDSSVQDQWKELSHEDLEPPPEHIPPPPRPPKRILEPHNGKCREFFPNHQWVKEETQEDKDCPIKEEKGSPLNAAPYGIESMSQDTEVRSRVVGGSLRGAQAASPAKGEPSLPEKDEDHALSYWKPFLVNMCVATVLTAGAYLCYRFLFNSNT
Protocol: The PTP1b inhibitory activity of the tested compounds was measured at 37 °C using p-nitrophenyl phosphate (pNPP) as the substrate. The reaction was performed in a 96-well plate (final volume of 150 μL) and incubated for 30 min in the assay buffer (50 mM citrate (pH 6.0), 0.1 M NaCl, 1 mM EDTA, and 1 mM dithiothreitol) at 37 °C. Subsequently, the reaction was terminated by the addition of 10 M NaOH and the amount of p-nitrophenyl was determined by measuring the absorbance at 405 nm.

SHP1 = SHP1 (Homo sapiens, UniProt P29350); assay: SHP1 inhibitory activity; type: biochemical
CD45 = biological target: T2, CD45 (Homo sapiens, UniProt P08575); assay: CD45 inhibitory activity; type: biochemical
T2 sequence (P08575 26-1306): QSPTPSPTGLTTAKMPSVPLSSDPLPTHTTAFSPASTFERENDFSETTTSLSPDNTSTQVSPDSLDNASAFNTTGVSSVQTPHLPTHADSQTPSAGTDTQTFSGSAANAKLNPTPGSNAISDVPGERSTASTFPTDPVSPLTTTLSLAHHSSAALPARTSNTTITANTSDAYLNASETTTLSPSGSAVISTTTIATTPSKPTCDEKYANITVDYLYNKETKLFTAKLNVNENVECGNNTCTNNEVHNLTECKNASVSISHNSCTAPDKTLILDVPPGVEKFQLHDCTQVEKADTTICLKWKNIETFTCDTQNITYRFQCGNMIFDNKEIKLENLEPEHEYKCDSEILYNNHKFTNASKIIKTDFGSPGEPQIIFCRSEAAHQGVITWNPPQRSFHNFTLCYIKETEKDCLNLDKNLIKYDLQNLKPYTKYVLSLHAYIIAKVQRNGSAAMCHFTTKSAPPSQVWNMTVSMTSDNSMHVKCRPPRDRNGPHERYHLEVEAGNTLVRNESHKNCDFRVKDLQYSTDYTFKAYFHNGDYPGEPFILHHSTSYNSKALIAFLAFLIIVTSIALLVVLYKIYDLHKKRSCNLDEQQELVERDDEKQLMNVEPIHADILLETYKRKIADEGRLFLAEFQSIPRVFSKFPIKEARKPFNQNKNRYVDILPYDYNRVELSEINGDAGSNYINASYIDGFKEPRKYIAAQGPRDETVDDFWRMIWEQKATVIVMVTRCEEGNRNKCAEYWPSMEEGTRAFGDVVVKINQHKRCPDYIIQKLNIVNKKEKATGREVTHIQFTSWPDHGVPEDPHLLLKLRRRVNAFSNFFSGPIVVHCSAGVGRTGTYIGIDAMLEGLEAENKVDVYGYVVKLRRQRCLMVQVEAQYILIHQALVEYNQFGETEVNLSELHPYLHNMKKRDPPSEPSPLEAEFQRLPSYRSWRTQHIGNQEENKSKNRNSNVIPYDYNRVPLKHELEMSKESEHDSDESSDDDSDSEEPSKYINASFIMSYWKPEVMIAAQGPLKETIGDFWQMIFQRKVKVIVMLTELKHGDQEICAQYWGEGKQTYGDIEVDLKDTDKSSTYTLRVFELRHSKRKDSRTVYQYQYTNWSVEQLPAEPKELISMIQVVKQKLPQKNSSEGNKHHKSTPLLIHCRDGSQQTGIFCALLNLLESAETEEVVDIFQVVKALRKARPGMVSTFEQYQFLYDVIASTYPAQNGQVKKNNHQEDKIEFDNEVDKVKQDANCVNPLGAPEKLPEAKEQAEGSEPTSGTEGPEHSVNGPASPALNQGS

nematode = assay: anti-nematode activity
S. aureus = tested on: S. aureus; parameters: method as in doi:10.1007/s10600-016-1885-z; details: cited from earlier work
B. cereus = tested on: B. cereus; parameters: method as in doi:10.1007/s10600-016-1885-z; details: cited from earlier work
fungi = tested on: fungi; parameters: method as in PMID 23488669; details: cited from earlier work

Sequence of SHP1 (P29350 whole entry): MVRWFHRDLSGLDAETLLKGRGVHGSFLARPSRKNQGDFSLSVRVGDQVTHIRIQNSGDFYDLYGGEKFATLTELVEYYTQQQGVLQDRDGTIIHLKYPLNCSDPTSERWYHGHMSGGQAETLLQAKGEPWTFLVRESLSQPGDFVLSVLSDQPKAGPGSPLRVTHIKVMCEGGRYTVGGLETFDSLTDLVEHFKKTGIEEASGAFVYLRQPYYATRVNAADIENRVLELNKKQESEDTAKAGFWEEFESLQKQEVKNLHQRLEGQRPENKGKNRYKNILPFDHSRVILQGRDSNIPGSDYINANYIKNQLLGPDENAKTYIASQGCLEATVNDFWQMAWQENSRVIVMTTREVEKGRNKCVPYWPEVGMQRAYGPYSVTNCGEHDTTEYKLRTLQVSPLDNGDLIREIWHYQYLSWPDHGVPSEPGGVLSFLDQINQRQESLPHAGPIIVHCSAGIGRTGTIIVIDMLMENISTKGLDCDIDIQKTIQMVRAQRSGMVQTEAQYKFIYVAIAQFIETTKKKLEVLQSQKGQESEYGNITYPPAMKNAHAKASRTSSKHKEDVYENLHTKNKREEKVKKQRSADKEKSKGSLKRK

For `CC(C)CCC[C@](C)(O)c1ccc(CO)cc1O` [(S)-(+)-sydonol], the “effect on insulin-stimulated glucose consumption” value [1] is listed as “potentiated”.
For `CC(C)CCC[C@](C)(O)c1ccc(C(=O)O)cc1O` [N2, Sydonic acid], the IC50 (PTP1b) was 7.97 µM, the IC50 (SHP1) was 8.35 ± 0.35 µM and the IC50 (CD45) was > 20 µM.
In the case of `Cc1cc(O)cc(O)c1C(=O)O` [N1, Orsellinic acid], the IC50 (PTP1b) is reported as > 20 µM, the IC50 (SHP1) is reported as > 20 µM and the IC50 (CD45) is reported as > 20 µM.
With `CC(C)C(O)CC[C@](C)(O)c1ccc(C(=O)O)cc1O` (stereo partly drawn) [N3, (7S)-(−)-10-Hydroxysydonic acid] the IC50 (PTP1b) was 15.88 ± 0.13 µM, the IC50 (SHP1) was > 20 µM and the IC50 (CD45) was > 20 µM. It also gave an IC50 (nematode) of 50 µM.
`CC(C)CCCC(C)(O)c1ccc(C(=O)NC(CO)C(=O)O)cc1O` (centres unmarked) [N7, Serine sydonate] gave an IC50 (PTP1b) of 14.2 ± 0.21 µM, an IC50 (SHP1) of 11.68 ± 0.08 µM and an IC50 (CD45) of 16 µM.
With `CC(C)(O)CCCC(C)(O)c1ccc(C(=O)O)cc1O` (stereo in doubt) [N4, (R)-(−)-Hydroxysydonic acid] the IC50 (PTP1b) was > 20 µM, the IC50 (SHP1) was 15.72 ± 0.11 µM and the IC50 (CD45) was > 20 µM. The “MIC against S. aureus” value (S. aureus) was “less than 25 μM” and the “MIC against B. cereus” value (B. cereus) was “less than 25 μM”.
For `C[C@@H]1CCC/C=C/C=C/[C@H](O)C[C@@H](O)C/C=C\C=C\[C@@H](O)C/C=C/C=C\C(=O)O1` [N13, Macrolactin A], the IC50 (PTP1b) was > 20 µM, the IC50 (SHP1) was 14.6 ± 0.39 µM and the IC50 (CD45) was 17.9 µM. For the same compound, the “antifungal activity MIC” value (fungi) was 40 to 300 µM.
